Test results taken from US8227429B2, “Macrolide synthesis process and solid-state forms” (Intervet International B.V., priority 2006, dated 2012).
Structures can show the parent of a compound that is named as a salt. Where two headings read alike, the source gives them in different places. Blank lines part the entries; values can stand above or below the molecule they belong to.

How the values were obtained:
[1] = Thermogravimetry coupled to FTIR (TG-FTIR); assay type: physicochemical
Method: Measurements of thermogravimetry coupled to Fourier transform infrared spectroscopy (“TG-FTIR”) were obtained using a Netzsch Thermo-Microbalance TG 209 with a Bruker Vector 22 FT-IR Spectrometer using an aluminum crucible (with micro-hole or open), N2 atmosphere, heating rate of 10° C./min, and temperature range of 25-250° C.

[2] = Dynamic vapor sorption (DVS) water uptake; assay type: physicochemical; settings: 25° C.; for maximum water uptake: at 95% relative humidity
Method: Dynamic vapor sorption (“DVS”) measurements were obtained with a Projekt Messtechnik SPS11-100n water vapor sorption analyzer. The samples were placed into aluminum crucibles on a microbalance, and allowed to equilibrate at 25° C. and 50% relative humidity before initiating the following pre-defined humidity program at 25° C.: 50-95-0-50% relative humidity, and scanning with a 5% change in relative humidity per hour and with iso-humid equilibration periods at extreme values.

[3] = Relative solid-state stability (Applicants' observations); assay type: physicochemical
Thermogravimetry (TG) = assay type: physicochemical
Method: Thermogravimetry (“TG”) measurements were obtained with a Perkin Elmer TGS 2 thermogravimetric analyzer using an aluminum crucible (open), N2 atmosphere, heating rate of 10° C./min, and temperature range of 25-500° C.

[4] = Desolvation / stability on drying under vacuum
Method: In one experiment, the S2 crystalline solvate was prepared by dissolving the Form II polymorph of 20,23-dipiperidinyl-5-O-mycaminosyl-tylonolide (245.7 mg) in tert-butyl methyl ether (0.5 ml), and slowly evaporating a portion of the solvent at ambient temperature. After no crystals formed, additional tert-butyl methyl ether was added, followed by seeding S2 solvate crystals from the first batch. The solvent was then allowed to evaporate completely. […] In further testing, the crystals were vacuum-dried at ambient temperature for 20 hours, and then dried again under vacuum for 24 hours at about 70° C.

Solubility in tBME = assay type: physicochemical

SMILES: CC[C@H]1OC(=O)C[C@@H](O)[C@H](C)[C@@H](OC2OC(C)C(O)C(N(C)C)C2O)[C@@H](CCN2CCCCC2)C[C@@H](C)C(=O)/C=C/C(C)=C/[C@@H]1CN1CCCCC1 (stereo in doubt) [Form I polymorph]
weight loss ([1]; temperature range of from 60 to 180° C., attributed to water loss): 0.6% | maximum water uptake [2]: less than 1 % (by weight) | stability relative to other solid-state forms [3]: greater stability at ambient temperature than the other above-listed solid-state forms

SMILES: CC[C@H]1OC(=O)C[C@@H](O)[C@H](C)[C@@H](OC2OC(C)C(O)C(N(C)C)C2O)[C@@H](CCN2CCCCC2)C[C@@H](C)C(=O)/C=C/C(C)=C/[C@@H]1CN1CCCCC1 (stereo in doubt) [Form II polymorph]
temperature at which decomposition began [1]: greater than 220 °C | weight loss ([1]; mainly in the temperature range of from 50 to 100° C., attributed to water loss): 0.7% | maximum water uptake [2]: about 2 % (by weight)

SMILES: CC[C@H]1OC(=O)C[C@@H](O)[C@H](C)[C@@H](OC2OC(C)C(O)C(N(C)C)C2O)[C@@H](CCN2CCCCC2)C[C@@H](C)C(=O)/C=C/C(C)=C/[C@@H]1CN1CCCCC1 (stereo in doubt) [Form III polymorph]
weight loss ([1]; up to 220° C., most between 50 and 120° C.): 1.7% | temperature at which decomposition began (Thermogravimetry (TG)): greater than 270 °C | weight loss (Thermogravimetry (TG); up to 200° C.): less than 0.05% | water uptake ([2]; between 70 and 85% relative humidity): about 6%

SMILES: CC[C@H]1OC(=O)C[C@@H](O)[C@H](C)[C@@H](OC2OC(C)C(O)C(N(C)C)C2O)[C@@H](CCN2CCCCC2)C[C@@H](C)C(=O)/C=C/C(C)=C/[C@@H]1CN1CCCCC1 (stereo in doubt) [THF S3 crystalline solvate]
weight loss due to liberation of solvent ([1]; at temperatures greater than 100° C.): about 8.1%

SMILES: CC[C@H]1OC(=O)C[C@@H](O)[C@H](C)[C@@H](OC2OC(C)C(O)C(N(C)C)C2O)[C@@H](CCN2CCCCC2)C[C@@H](C)C(=O)/C=C/C(C)=C/[C@@H]1CN1CCCCC1 (stereo in doubt) [diethyl ketone S1 crystalline solvate]
weight loss due to liberation of solvent [1]: 10%

The next lines start with results.

weight loss due to liberation of solvent ([1]; up to 200° C.): approximately 6.6%
SMILES: CC[C@H]1OC(=O)C[C@@H](O)[C@H](C)[C@@H](OC2OC(C)C(O)C(N(C)C)C2O)[C@@H](CCN2CCCCC2)C[C@@H](C)C(=O)/C=C/C(C)=C/[C@@H]1CN1CCCCC1 (stereo in doubt) [ethanol S1 crystalline solvate]

weight loss due to liberation of solvent [1]: approximately 4.1%
SMILES: CC[C@H]1OC(=O)C[C@@H](O)[C@H](C)[C@@H](OC2OC(C)C(O)C(N(C)C)C2O)[C@@H](CCN2CCCCC2)C[C@@H](C)C(=O)/C=C/C(C)=C/[C@@H]1CN1CCCCC1 (stereo in doubt) [ethyl acetate S1 crystalline solvate]
result of vacuum drying ([4]; ambient temperature): readily converted into the Form III polymorph

temperature at which desolvation was nearly completed [1]: ~130 °C | weight loss due to liberation of solvent [1]: about 7.7%
SMILES: CC[C@H]1OC(=O)C[C@@H](O)[C@H](C)[C@@H](OC2OC(C)C(O)C(N(C)C)C2O)[C@@H](CCN2CCCCC2)C[C@@H](C)C(=O)/C=C/C(C)=C/[C@@H]1CN1CCCCC1 (stereo in doubt) [ethyl formate crystalline solvate]

solubility (Solubility in tBME; organic solvent or mixture): 40 to 50 mg/mL | solubility in tBME relative to the Form II polymorph (Solubility in tBME; solvent tBME): at least one order of magnitude less | weight loss due to liberation of solvent [1]: 8.7-10%
SMILES: CC[C@H]1OC(=O)C[C@@H](O)[C@H](C)[C@@H](OC2OC(C)C(O)C(N(C)C)C2O)[C@@H](CCN2CCCCC2)C[C@@H](C)C(=O)/C=C/C(C)=C/[C@@H]1CN1CCCCC1 (stereo in doubt) [tBME S2 crystalline solvate]

temperature at which desolvation was nearly completed [1]: ~160 °C | weight loss due to liberation of solvent [1]: about 8.4%
SMILES: CC[C@H]1OC(=O)C[C@@H](O)[C@H](C)[C@@H](OC2OC(C)C(O)C(N(C)C)C2O)[C@@H](CCN2CCCCC2)C[C@@H](C)C(=O)/C=C/C(C)=C/[C@@H]1CN1CCCCC1 (stereo partly shown) [methyl acetate crystalline solvate]

stability ([4]; 60° C. at 1 mbar (absolute) for 1 day): exhibits stability | result of drying under vacuum ([4]; ambient temperature and 70° C.): no loss of solvent was observed
SMILES: CC[C@H]1OC(=O)C[C@@H](O)[C@H](C)[C@@H](OC2OC(C)C(O)C(N(C)C)C2O)[C@@H](CCN2CCCCC2)C[C@@H](C)C(=O)/C=C/C(C)=C/[C@@H]1CN1CCCCC1 (stereo partly shown) [tBME S2 crystalline solvate]
stability relative to other solid-state forms ([3]; listed as tBME crystalline solvate): more stable than the ethyl acetate S1 crystalline solvate
